Our source for the Ki, FLVK % inhibition and inhibition values is patent US6620828B2, “Thiazole compounds and pharmaceutical compositions for inhibiting protein kinases and methods for their use” (Agouron Pharmaceuticals, Inc., priority 1999, dated 2003).

What all share (type): biochemical
Assay [1] has as its target T1, unphosphorylated VEGF-R2Δ50 (FLVK) (Homo sapiens, UniProt P35968, DEL940-989/E990V).
T1 construct: VEGF-R2Δ50 contains residues 806-939 and 990-1171; made in house; host or cells: baculovirus/insect cells
Put plainly: VEGF-R2 coupled spectrophotometric assay, unphosphorylated enzyme (FLVK). The settings on record: Table 3; for Ki: some entries 'Slow binder'; for inhibition at 0.05 µM: at 50 nM. From the text: VEGF-R2 Construct for Assay: This construct determines the ability of a test compound to inhibit tyrosine kinase activity. A construct (VEGF-R2Δ50) of the cytosolic domain of human vascular endothelial growth factor receptor 2 (VEGF-R2) lacking the 50 central residues of the 68 residues of the kinase insert domain was expressed in a baculovirus/insect cell system. Of the 1356 residues of full-length VEGF-R2, VEGF-R2Δ50 contains residues 806-939 and 990-1171, and also one point mutation (E990V) within the kinase insert domain relative to wild-type VEGF-R2. Autophosphorylation of the purified construct was performed by incubation of the enzyme at a concentration of 4 μM in the presence of 3 mM ATP and 40 mM MgCl2 in 100 mM Hepes, pH 7.5, containing 5% glycerol and 5 mM DTT, at 4° C. for 2 h. […] See Parast et al., Biochemistry, 37, 16788-16801 (1998).
The production of ADP from ATP that accompanies phosphoryl transfer was coupled to oxidation of NADH using phosphoenolpyruvate (PEP) and a system having pyruvate kinase (PK) and lactic dehydrogenase (LDH). The oxidation of NADH was monitored by following the decrease of absorbance at 340 nm (e340=6.22 cm^−1 mM^−1) using a Beckman DU 650 spectrophotometer. Assay conditions for phosphorylated VEGF-R2Δ50 (indicated as FLVK-P in the tables below) were the following: 1 mM PEP; 250 μM NADH; 50 units of LDH/mL; 20 units of PK/mL; 5 mM DTT; 5.1 mM poly(E4Y1); 1 mM ATP; and 25 mM MgCl2 in 200 mM Hepes, pH 7.5. Assay conditions for unphosphorylated VEGF-R2Δ50 (indicated as FLVK in the tables) were the following: 1 mM PEP; 250 μM NADH; 50 units of LDH/mL; 20 units of PK/mL; 5 mM DTT; 20 mM poly(E4Y1); 3 mM ATP; and 60 mM MgCl2 and 2 mM MnCl2 in 200 mM Hepes, pH 7.5. Assays were initiated with 5 to 40 nM of enzyme. Ki values were determined by measuring enzyme activity in the presence of varying concentrations of test compounds. The data were analyzed using Enzyme Kinetic and Kaleidagraph software.

In a further assay the target is CDK2/Cyclin A complex (Homo sapiens, UniProt P24941). In words: CDK2/Cyclin A assay. The settings on record: 1.0 μM; combinatorial library compounds. The method, boiled down: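 Radiometric assay: 150 nM CDK2/cyclin A (insect-cell CDK2, truncated cyclin A) phosphorylates His-tagged Rb fragment (residues 386-928) with 25 μM ATP plus [32P]ATP, pH 7.4 HEPES, 2% DMSO, 30 °C for 20 min. Filter-captured product counted by phosphorimager; apparent Ki from competitive or tight-binding inhibition fits.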

Assay [2] has as its target T2, phosphorylated VEGF-R2Δ50 (FLVK-P) (Homo sapiens, UniProt P35968, DEL940-989/E990V).
T2 construct: VEGF-R2Δ50 contains residues 806-939 and 990-1171; made in house; host or cells: baculovirus/insect cells
Put plainly: VEGF-R2 coupled spectrophotometric (FLVK-P) assay. Conditions: read-out: VEGF % inhibition at 20 μM, 20 μM; combinatorial library compounds. The procedure, abridged: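 Baculovirus-expressed human VEGF-R2Δ50 (residues 806-939/990-1171, E990V) was autophosphorylated with 3 mM ATP, 40 mM MgCl2 for 2 h at 4° C. ADP formation was coupled via PK/LDH to NADH oxidation, read at 340 nm, with 5.1 mM poly(E4Y1), 1 mM ATP, 25 mM MgCl2, Hepes pH 7.5. Ki came from activity across compound concentrations.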

The target in another assay is T3, FL-CHK1 (Homo sapiens, UniProt O14757).
T3 construct: C-terminally His-tagged full-length human CHK1 (FL-CHK1); 6xHis (C); made in house; host or cells: baculovirus/insect cells
T3 sequence (O14757 1-476): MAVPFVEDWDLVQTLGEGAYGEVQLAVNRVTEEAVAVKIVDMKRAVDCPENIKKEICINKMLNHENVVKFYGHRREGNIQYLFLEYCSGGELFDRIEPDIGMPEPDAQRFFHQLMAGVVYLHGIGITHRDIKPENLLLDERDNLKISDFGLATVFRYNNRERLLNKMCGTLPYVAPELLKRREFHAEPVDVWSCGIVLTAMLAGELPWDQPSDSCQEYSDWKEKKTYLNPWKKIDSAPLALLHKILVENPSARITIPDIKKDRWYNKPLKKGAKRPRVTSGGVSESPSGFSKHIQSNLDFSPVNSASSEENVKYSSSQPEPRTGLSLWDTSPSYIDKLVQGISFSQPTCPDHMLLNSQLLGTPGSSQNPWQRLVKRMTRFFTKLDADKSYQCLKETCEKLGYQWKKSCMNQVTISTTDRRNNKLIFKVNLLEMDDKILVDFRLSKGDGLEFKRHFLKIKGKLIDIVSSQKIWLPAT
In words: CHK1 assay. Conditions: 20 μM; combinatorial library compounds. The procedure, abridged: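 Full-length human CHK1 with C-terminal 6×His tag, made in baculovirus/insect cells, 10 nM, phosphorylating 0.125 mM Syntide-2 with 0.15 mM ATP in 50 mM Tris pH 7.5, 25 mM MgCl2, 400 mM NaCl. PK/LDH-coupled NADH oxidation read at 340 nm. Ki from initial rates over varied compound concentrations.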

Another assay concerns the target T4, CDK4/Cyclin D3 complex (Homo sapiens, UniProt P11802).
T4 construct: made in house; host or cells: insect cells co-infected with baculovirus vectors
Put plainly: CDK4/Cyclin D assay. The settings on record: 1.0 μM; combinatorial library compounds. The method, boiled down:
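Insect-cell-expressed CDK4/cyclin D3 (50 nM) phosphorylating His-tagged Rb fragment (residues 386-928) with 25 μM [^32P]ATP in HEPES pH 7.4, MgCl2, 2% DMSO; 20 min at 30 °C, EDTA stop. Filter-captured 32P by phosphorimager; apparent Ki from competitive or tight-binding inhibition fits.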

Molecules are shown by their SMILES. Where a name gives a salt, the structure may show the parent alone.

T1 sequence (P35968 with tags, fused parts or gaps DEL940-989/E990V limits assumed): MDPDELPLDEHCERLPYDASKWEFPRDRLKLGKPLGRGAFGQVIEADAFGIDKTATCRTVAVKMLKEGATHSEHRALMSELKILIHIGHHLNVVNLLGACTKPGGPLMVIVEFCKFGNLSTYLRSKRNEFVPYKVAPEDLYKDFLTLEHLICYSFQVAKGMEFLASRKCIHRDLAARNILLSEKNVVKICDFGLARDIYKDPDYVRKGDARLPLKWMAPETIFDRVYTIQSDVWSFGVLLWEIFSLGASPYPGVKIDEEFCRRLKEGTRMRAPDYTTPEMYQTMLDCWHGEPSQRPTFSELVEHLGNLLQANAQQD
T2 sequence (P35968 with tags, fused parts or gaps DEL940-989/E990V limits assumed): as above
T4 sequence (P11802 whole entry): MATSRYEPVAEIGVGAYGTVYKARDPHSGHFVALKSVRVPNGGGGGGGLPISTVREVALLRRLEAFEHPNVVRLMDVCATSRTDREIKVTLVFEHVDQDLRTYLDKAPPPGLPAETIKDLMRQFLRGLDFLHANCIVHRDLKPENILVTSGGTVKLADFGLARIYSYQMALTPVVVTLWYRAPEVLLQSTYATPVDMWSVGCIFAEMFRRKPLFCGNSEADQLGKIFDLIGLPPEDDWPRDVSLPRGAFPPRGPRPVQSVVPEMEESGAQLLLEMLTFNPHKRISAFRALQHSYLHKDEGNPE
T4 sequence (P30281 whole entry partner): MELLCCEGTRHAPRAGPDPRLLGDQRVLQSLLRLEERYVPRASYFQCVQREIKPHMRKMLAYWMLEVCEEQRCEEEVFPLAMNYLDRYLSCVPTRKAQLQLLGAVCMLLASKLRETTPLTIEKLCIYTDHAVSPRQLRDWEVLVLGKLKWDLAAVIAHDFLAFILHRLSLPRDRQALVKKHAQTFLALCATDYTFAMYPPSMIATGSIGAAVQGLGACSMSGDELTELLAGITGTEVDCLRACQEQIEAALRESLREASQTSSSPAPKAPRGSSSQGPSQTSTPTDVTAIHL

`COc1cc(Nc2nc(N)c(-c3nc(-c4cc(NC(=O)OC(C)(C)C)ccc4F)no3)s2)cc(OC)c1OC` [B(5), 3-(3-(tert-butyloxycarboxyamino)-6-fluoro-phenyl)-5-[2-[(3,4,5-trimethoxyphenyl)amino]-4-amino-5-thiazolyl]-1,2,4-oxadiazole]: the inhibition constant (Ki) (commonly the equilibrium dissociation constant of an inhibitor or competing ligand from its target) in assay [1] was found to be 2.3 nM.

In assay [1], `COc1cccc(C(=O)Nc2cc(-c3csc(-c4sc(NC(=O)NCCN5CCOCC5)nc4N)n3)c(F)cc2F)c1` [O(26), N-(5-{4′-Amino-2′-[3-(2-morpholin-4-yl-ethyl)-ureido]-[2,5′]bithiazolyl-4-yl}-2,4-difluoro-phenyl)-3-methoxy-benzamide] had an inhibition constant (Ki) of 1.4 nM.

For the compound `Cc1ccc(NC(=O)C(O)CC(C)C)cc1-c1noc(-c2sc(Nc3cccc(CN4CCCC4)c3)nc2N)n1` (racemic) [B(11), (R,S)-3-[3-(2-hydroxy-4-methylpentanoyl)amino]-6-methylphenyl]-5-[2-(3-methylpyrrolidinephenyl)amino]-4-amino-5-thiazolyl]-1,2,4 oxadiazole], the inhibition constant Ki in assay [1] amounted to 0.7 nM.

In assay [1], `COc1cc(Nc2nc(N)c(-c3nc(-c4cccc(NC(=O)c5ccc(CN6CCN(C)CC6)cc5)c4)no3)s2)cc(OC)c1OC` [D(77)] showed an inhibition constant Ki of 2.6 nM.

Compound `COc1cccc(C(=O)Nc2cc(-c3csc(-c4sc(NC(=O)NCCOCCO)nc4N)n3)c(F)cc2F)c1` [O(28), N-[5-(4′-Amino-2′-{3-[2-(2-hydroxy-ethoxy)-ethyl]-ureido}-[2,5′]bithiazolyl-4-yl)-2,4-difluoro-phenyl]-3-methoxy-benzamide] gave an inhibition constant (Ki) in assay [1] of 0.29 nM.

For `Cc1ccc(NC(=O)OC(C)(C)C)cc1-c1noc(-c2sc(Nc3ccccc3)nc2N)n1` [B(23)], the inhibition constant Ki in assay [1] stood at 1.7 nM.

In assay [1] (concentration not given), `COc1cccc(C(=O)Nc2cc(-c3noc(-c4sc(Nc5cccnc5)nc4N)n3)c(F)cc2F)c1` [B(20), N-(5-{5-[4-Amino-2-(pyridin-3-ylamino)-thiazol-5-yl]-[1,2,4]oxadiazol-3-yl}-2,4-difluoro-phenyl)-3-methoxy-benzamide-TFA salt] showed an FLVK % inhibition of 80%.

For `COc1cc(F)c(-c2noc(-c3sc(Nc4cc(OC)c(OC)c(OC)c4)nc3N)n2)cc1N` [C(5), 3-[2-fluoro-4-methoxy-5-aminophenyl]-5-[2-[(3,4,5-trimethoxyphenyl)amino]-4-amino-5-thiazolyl]-1,2,4-oxadiazole], the inhibition (as a rule, the drop in the measured response relative to a control, in per cent) at 0.05 µM in assay [1] amounted to 15%.

`COc1cc(Nc2nc(N)c(-c3nc(-c4cccc(NC(=O)c5cccc(C(N)=O)c5)c4)no3)s2)cc(OC)c1OC` [D(71)] had a Ki in assay [1] of 4.1 nM.

With `CCn1nc(C)cc1C(=O)Nc1ccc(C)c(-c2noc(-c3sc(Nc4cccc(CO)c4)nc3N)n2)c1` [B(8)], the inhibition constant Ki in assay [1] stood at 0.1 nM.

In assay [1], `COc1cccc(C(=O)Nc2cc(-c3noc(-c4sc(NC(=O)NCC5CCCO5)nc4N)n3)c(F)cc2F)c1` (centres unmarked) [O(5), N-[5-(5-{4-Amino-2-[3-(tetrahydro-furan-2-ylmethyl)-ureido]-thiazol-5-yl}-[1,2,4]oxadiazol-3-yl)-2,4-difluoro-phenyl]-3-methoxy-benzamide] yielded a Ki of 0.22 nM. This Ki is about 2.2-fold higher than that of the compound before.

With `CCn1nc(C)cc1C(=O)Nc1ccc(C)c(-c2noc(-c3sc(Nc4ccc(CN5CCCC5)cc4)nc3N)n2)c1` [B(10)], affinity in assay [1] was put at a Ki of 0.13 nM.

In the case of `COc1cccc(C(=O)Nc2cc(-c3csc(-c4sc(NC(=O)NCCc5ccncc5)nc4N)n3)c(F)cc2F)c1` [O(30), N-(5-{4′-Amino-2′-[3-(2-pyridin-4-yl-ethyl)-ureido]-[2,5′]bithiazolyl-4-yl}-2,4-difluoro-phenyl)-3-methoxy-benzamide], the inhibition at 0.05 µM in assay [1] came out at 39%.

`COc1cccc(C(=O)Nc2cc(-c3noc(-c4sc(NC(=O)NCc5ccccn5)nc4N)n3)c(F)cc2F)c1` [O(8), N-(5-{5-[4-Amino-2-(3-pyridin-2-ylmethyl-ureido)-thiazol-5-yl]-[1,2,4]oxadiazol-3-yl}-2,4-difluoro-phenyl)-3-methoxy-benzamide]: the Ki in assay [1] came to 0.21 nM. This lies in the sub-nanomolar range.

For the compound `CCn1nc(C)cc1C(=O)Nc1ccc(C)c(-c2noc(-c3sc(Nc4ccc(N5CCN(C)CC5)nc4)nc3N)n2)c1` [B(27)], the inhibitory constant (Ki) in assay [1] was 0.3 nM. This Ki and that of the compound before are within 1.5-fold of each other.

With `COc1cc(F)c(-c2noc(-c3sc(Nc4cc(OC)c(OC)c(OC)c4)nc3N)n2)cc1NC(=O)OC(C)(C)C` [B(41)], the inhibition at 0.05 µM in assay [1] was determined as 0%.

For the compound `COc1cccc(C(=O)Nc2cc(-c3csc(-c4sc(NC(=O)NCc5ccccn5)nc4N)n3)c(F)cc2F)c1` [O(16), N-{5-[4′-Amino-2′-(3-pyridin-2-ylmethyl-ureido)-[2,5′]bithiazolyl-4-yl]-2,4-difluoro-phenyl}-3-methoxy-benzamide], in assay [1], the inhibition at 0.05 µM stood at 11%.

`COc1cccc(C(=O)Nc2cc(-c3noc(-c4sc(NC(=O)NCCN5CCOCC5)nc4N)n3)c(F)cc2F)c1` [O(1), N-[5-(5-{4-Amino-2-[3-(2-morpholin-4-yl-ethyl)-ureido]-thiazol-5-yl}-[1,2,4]oxadiazol-3-yl)-2,4-difluoro-phenyl]-3-methoxy-benzamide] came in with a Ki in assay [1] of 0.28 nM. This counts as sub-nanomolar.

For the compound `COC(=O)c1cccc(-c2noc(-c3sc(Nc4cc(OC)c(OC)c(OC)c4)nc3N)n2)c1` [B(42)], the inhibition at 0.05 µM in assay [1] is 12%.

Regarding `C/C=C(/C)C(=O)Nc1ccc(C)c(-c2noc(-c3sc(Nc4ccc(N5CCN(C)CC5)nc4)nc3N)n2)c1` [B(31)], the affinity in assay [1], expressed as Ki, was 5.1 nM.

In the case of `Nc1nc(Nc2ccc(S(N)(=O)=O)cc2)sc1-c1nc(-c2cc3cc(Cl)ccc3o2)cs1`, the values for the inhibition at 1 µM on CDK2/Cyclin A complex and at CDK4/Cyclin D3 complex were 16.6% and -15%, respectively. The inhibition at 20 µM in assay [2] is -4%; on FL-CHK1, 13.6%.

As to `CN(C)c1ccc(Nc2nc(N)c(-c3nc(-c4ccc5c(c4)CCC(=O)N5)cs3)s2)cc1`, the inhibition at 1 µM on CDK2/Cyclin A complex is -2.5%; at CDK4/Cyclin D3 complex, 43.7%. Besides, the inhibition at 20 µM is 20% in assay [2] and 32.7% on FL-CHK1.

As for `CC(C)c1ccc(Nc2nc(N)c(-c3nc(-c4ccc5c(c4)C(C)(C)CCC5(C)C)cs3)s2)cc1`, the figures for the inhibition at 1 µM at CDK2/Cyclin A complex and at CDK4/Cyclin D3 complex were 5.2% and 74.4%, respectively. The values for the inhibition at 20 µM (in assay [2]; on FL-CHK1) were 19% and 11.6%, respectively.
